Experimental data published in US11584754B2, “Derivatives of thailanstatin A, methods of treatment and methods of synthesis thereof” (WILLIAM MARSH RICE UNIVERSITY, priority 2016, dated 2023).
Like-named read-outs stand apart in the source and are kept apart here. Non-standard residues stand in square brackets, D forms with d. Residues, ends and D or L forms follow the SMILES beside them. *: point of attachment. Dolaproine = CO[C@@H]([C@@H]1CCCN1)[C@@H](C)C(=O)O; Dil = CC[C@H](C)[C@H](NC)[C@@H](CC(=O)O)OC; X1 = C[C@@H](N*)[C@@H](O)c1ccccc1; NMeV = CN[C@H](C(=O)O)C(C)C

Assays:
Type in all cases: cell-based, human
MES SA = assay: Cytotoxicity assay (72 hour killing assay, CellTiter-Glo), MES SA; conditions: read-out: Cancer cell lines IC50 (nM) MES SA
Experimental: (§1) Cells were cultured in a T75 flask to ˜50-80% confluency and harvested with trypsin into a single cell suspension. Five hundred (500) cells per well were seeded in tissue culture plates in 50 μL/well culture media and incubated at 37° C. for 18-24 h. Compounds were diluted as 400× final desired concentrations in DMSO. Serial dilutions in DMSO were then diluted in culture media for a final DMSO concentration of 0.25% and 50 μL/well of the final dilution was added to the cells (Vf=100 μL). Upon plating and treatment, cells were returned to the incubator for an additional 72 hours. CellTiter-Glo reagent was prepared per manufacturer's instructions and added at 100 μL/well to the cultures. CellTiter-Glo allows for relative enumeration of metabolically active cells by quantifying intracellular ATP concentrations. After 5 minutes of incubation with CellTiter-Glo at ambient room temperature, 125 μL/well of the Cell Titer glo/cell lysate solution was transferred into black assay plates, which were then read in a luminometer within 30 minutes.
(§2) MES SA and MES SA/Dx cells are uterine sarcoma. MES SA Dx cell line was generated from MES SA to achieve upregulation of MDR1.

MES SA DX = assay: Cytotoxicity assay (72 hour killing assay, CellTiter-Glo), MES SA DX; conditions: read-out: Cancer cell lines IC50 (nM) MES SA DX
Experimental: as §1, §2

HEK 293T = assay: Cytotoxicity assay (72 hour killing assay, CellTiter-Glo), HEK 293T; conditions: read-out: Cancer cell lines IC50 (nM) HEK 293T
Experimental: as §1
293T cells are human embryonic kidney cell line.

| Structure (SMILES) | IC50 (MES SA; Homo sapiens, MES-SA, 72 h) [nM] | IC50 (MES SA DX; Homo sapiens, MES-SA, 72 h) [nM] | IC50 (HEK 293T; Homo sapiens, HEK-293T, 72 h) [nM] | IC50 (MES SA; 50% inhibitory concentration against cell growth, human uterine sarcoma cell line, 72 hours) [nM] | IC50 (MES SA DX; 50% inhibitory concentration against cell growth, MES SA cell line with marked multidrug resistance, 72 hours) [nM] | IC50 (HEK 293T; 50% inhibitory concentration against cell growth, human embryonic kidney cancer cell line, 72 hours) [nM] | IC50 (MES SA; MES-SA, 50% inhibitory concentration against cell growth, human uterine sarcoma cell line, 72 hours) [nM] | IC50 (MES SA DX; Homo sapiens, 50% inhibitory concentration against cell growth, MES SA cell line with marked multidrug resistance, 72 hours) [nM] |
| --- | --- | --- | --- | --- | --- | --- | --- | --- |
| CC(=O)O[C@@H](C)/C=C\C(=O)N[C@@H]1C[C@H](C)[C@H](C/C=C(C)/C=C/[C@H]2O[C@H](CC(=O)O)C[C@@]3(CO3)[C@@H]2O)O[C@@H]1C [Compound 1, Thailanstatin A] | 419 | > 400 | 296 | – | – | – | – | – |
| COC(=O)C[C@@H]1C[C@@]2(CO2)[C@H](O)[C@@H](/C=C/C(C)=C/C[C@@H]2O[C@H](C)[C@H](NC(=O)/C=C\[C@H](C)OC(=O)N3CCCCC3)C[C@@H]2C)O1 [Compound 42] | 3.68 | 3.45 | 0.24 | – | – | – | – | – |
| COC(=O)C[C@@H]1C[C@@]2(CO2)[C@H](O)[C@@H](/C=C/C(C)=C/C[C@@H]2O[C@H](C)[C@H](NC(=O)/C=C\[C@H](C)OC(C)=O)C=C2C)O1 [Compound 32] | > 1000 | > 1000 | > 1000 | – | – | – | – | – |
| CCOC(=O)CCNC(=O)C[C@@H]1C[C@@]2(CO2)[C@H](O)[C@@H](/C=C/C(C)=C/C[C@@H]2O[C@H](C)[C@H](NC(=O)/C=C\[C@H](C)OC(C)=O)C[C@H]2C)O1 [Compound 33, Ethyl 3-({[(3R,5S,7R,8R)-7-{(1E,3E)-5-[(2S,3R,5R,6R)-5-{[(2Z,4S)-4-acetoxypent-2-enoyl]amino}-3,6-dimethyltetrahydro-2H-pyran-2-yl]-3-methylpenta-1,3-dien-1-yl}-8-hydroxy-1,6-dioxaspiro[2.5]oct-5-yl]acetyl}amino)propanoate] | 512 | > 2500 | 1480 | – | – | – | – | – |
| COC(=O)C[C@@H]1C[C@@]2(CO2)[C@H](O)[C@@H](/C=C/C(C)=C/C[C@@H]2O[C@H](C)[C@H](NC(=O)/C=C\[C@H](C)OC(C)=O)C[C@@H]2C)O1 [Compound 2, Thailanstatin A methyl ester] | 0.32 | 3.6 | 0.36 | – | – | – | – | – |
| CC(=O)O[C@@H](C)/C=C\C(=O)N[C@@H]1C[C@H](C)[C@H](C/C=C(C)/C=C/[C@H]2O[C@H](CC(=O)NC3CC3)C[C@@]3(CO3)[C@@H]2O)O[C@@H]1C [Compound 31, (2S,3Z)-5-({(2R,3R,5S,6S)-6-[(2E,4E)-5-{(3R,4R,5R,7S)-7-[2-(Cyclopropylamino)-2-oxoethyl]-4-hydroxy-1,6-dioxaspiro[2.5]oct-5-yl}-3-methylpenta-2,4-dien-1-yl]-2,5-dimethyltetrahydro-2H-pyran-3-yl}amino)-5-oxopent-3-en-2-yl acetate] | 1.04 | 105 | 0.739 | – | – | – | – | – |
| COC(=O)C[C@@H]1C[C@@]2(CO2)[C@H](O)[C@@H](/C=C/C(C)=C\C[C@@H]2O[C@H](C)[C@H](NC(=O)/C=C\[C@H](C)OC(C)=O)C=C2C)O1 [Compound 46] | > 1000 | > 1000 | > 1000 | – | – | – | – | – |
| COC(=O)C[C@@H]1C[C@@]2(CO2)[C@H](O)[C@@H](/C=C/C(C)=C/C[C@@H]2O[C@H](C)[C@H](NC(=O)/C=C\[C@H](C)OC(=O)N3CCOCC3)C[C@@H]2C)O1 [Compound 44] | 2.66 | 3.71 | 0.15 | – | – | – | – | – |
| COC(=O)C[C@@H]1C[C@@]2(CO2)[C@H](O)[C@@H](/C=C/C(C)=C/C[C@H]2O[C@H](C)[C@H](NC(=O)/C=C\[C@H](C)OC(C)=O)C=C2C)O1 [Compound 30] | > 1000 | > 1000 | > 1000 | – | – | – | – | – |
| CC[C@H](C)[C@@H]([C@@H](CC(=O)N1CCC[C@H]1[C@H](OC)[C@@H](C)C(=O)N[C@H](C)[C@@H](O)c1ccccc1)OC)N(C)C(=O)[C@@H](NC(=O)[C@@H](NC)C(C)C)C(C)C [MMAE, reference compound] (H-[NMeV]V[Dil][Dolaproine]-X1) | – | – | – | 0.096 | 88.2 | 0.068 | – | – |
| COC(=O)C[C@@H]1C[C@@]2(CO2)[C@H](O)[C@@H](/C=C/C(C)=C/C[C@@H]2O[C@H](C)[C@H](NC(=O)/C=C\[C@H](C)OC(C)=O)C[C@H]2C)O1 [Compound 34, Methyl [(3R,5S,7R,8R)-7-{(1E,3E)-5-[(2S,3R,5R,6R)-5-{[(2Z,4S)-4-acetoxypent-2-enoyl]amino}-3,6-dimethyltetrahydro-2H-pyran-2-yl]-3-methylpenta-1,3-dien-1-yl}-8-hydroxy-1,6-dioxaspiro[2.5]-oct-5-yl]acetate] | 649 | > 1000 | > 1000 | – | – | – | – | – |
| COC(=O)C[C@@H]1C[C@@]2(CO2)[C@H](O)[C@@H](/C=C/C(C)=C/C[C@@H]2O[C@H](C)[C@H](NC(=O)/C=C\[C@H](C)OC(=O)N(C)C)C[C@@H]2C)O1 [Compound 36, Methyl [(3R,5S,7R,8R)-7-{(1E,3E)-5-[(2S,3S,5R,6R)-5-({(2Z,4S)-4-[(dimethylcarbamoyl)oxy]pent-2-enoyl}amino)-3,6-dimethyltetrahydro-2H-pyran-2-yl]-3-methylpenta-1,3-dien-1-yl}-8-hydroxy-1,6-dioxaspiro[2.5]oct-5-yl]acetate] | 0.92 | 1.09 | 0.08 | – | – | – | – | – |
| CCOC(=O)CCNC(=O)C[C@@H]1C[C@@]2(CO2)[C@H](O)[C@@H](/C=C/C(C)=C/C[C@@H]2O[C@H](C)[C@H](NC(=O)/C=C\[C@H](C)OC(C)=O)C[C@@H]2C)O1 [Compound 35, Ethyl 3-({[(3R,5S,7R,8R)-7-{(1E,3E)-5-[(2S,3S,5R,6R)-5-{[(2Z,4S)-4-acetoxypent-2-enoyl]amino}-3,6-dimethyltetrahydro-2H-pyran-2-yl]-3-methylpenta-1,3-dien-1-yl}-8-hydroxy-1,6-dioxaspiro-[2.5]oct-5-yl]acetyl}amino)propanoatee] | 6.9 | 261 | 2.2 | – | – | – | – | – |
| COC(=O)C[C@@H]1CC2(CC2)[C@H](O)[C@@H](/C=C/C(C)=C/C[C@@H]2O[C@H](C)[C@H](NC(=O)/C=C\[C@H](C)OC(C)=O)C[C@@H]2C)O1 [Compound 43, Methyl [(5S,7R,8S)-7-{(1E,3E)-5-[(2S,3S,5R,6R)-5-{[(2Z,4S)-4-acetoxypent-2-enoyl]amino}-3,6-di-methyltetrahydro-2H-pyran-2-yl]-3-methylpenta-1,3-dien-1-yl}-8-hydroxy-6-oxaspiro[2.5]oct-5-yl]-acetate] | > 2500 | > 2500 | 88.3 | – | – | – | – | – |
| COC(=O)C[C@@H]1C[C@@]2(CO2)[C@H](O)[C@@H](/C=C/C(C)=C\C[C@@H]2O[C@H](C)[C@H](NC(=O)/C=C\[C@H](C)OC(C)=O)C[C@H]2C)O1 [Compound 47, Methyl [(3R,5S,7R,8R)-7-{(1E,3Z)-5-[(2S,3R,5R,6R)-5-{[(2Z,4S)-4-acetoxypent-2-enoyl]amino}-3,6-dimethyltetrahydro-2H-pyran-2-yl]-3-methylpenta-1,3-dien-1-yl}-8-hydroxy-1,6-dioxaspiro[2.5]-oct-5-yl]acetate] | > 1000 | > 1000 | > 1000 | – | – | – | – | – |
| COC(=O)C[C@@H]1C[C@@]2(CO2)[C@H](OC(C)=O)[C@@H](/C=C/C(C)=C/C[C@@H]2O[C@H](C)[C@H](NC(=O)/C=C\[C@H](C)OC(C)=O)C[C@@H]2C)O1 [Compound 45, Methyl [(3R,5S,7R,8R)-8-acetoxy-7-{(1E,3E)-5-[(2S,3S,5R,6R)-5-{[(2Z,4S)-4-acetoxypent-2-enoyl]-amino}-3,6-dimethyltetrahydro-2H-pyran-2-yl]-3-methylpenta-1,3-dien-1-yl}-1,6-dioxaspiro[2.5]-oct-5-yl]acetate] | 6.82 | 6.73 | 0.58 | – | – | – | – | – |
| COC(=O)C[C@@H]1C[C@@]2(CO2)[C@H](O)[C@@H](/C=C/C(C)=C/C[C@@H]2O[C@H](C)[C@H](NC(=O)/C=C\[C@H](C)OC(=O)N3CCCCC3)C[C@H]2C)O1 [Compound 38, (2S,3Z)-5-{[(2R,3R,5R,6S)-6-{(2E,4E)-5-[(3R,4R,5R,7S)-4-Hydroxy-7-(2-methoxy-2-oxoethyl)-1,6-dioxaspiro[2.5]oct-5-yl]-3-methylpenta-2,4-dien-1-yl}-2,5-dimethyltetrahydro-2H-pyran-3-yl]-amino}-5-oxopent-3-en-2-yl piperidine-1-carboxylate] | > 2500 | > 2500 | > 400 | – | – | – | – | – |
| COC(=O)C[C@@H]1C[C@@]2(CO2)[C@H](O)[C@@H](/C=C/C(C)=C/C[C@@H]2O[C@H](C)[C@H](NC(=O)/C=C\[C@H](C)OC(=O)N3CCOCC3)C[C@H]2C)O1 [Compound 40] | > 2500 | > 2500 | > 400 | – | – | – | – | – |
| CC(=O)O[C@H]1C(=O)[C@@]2(C)[C@H]([C@H](OC(=O)c3ccccc3)[C@]3(O)C[C@H](OC(=O)[C@H](O)[C@@H](NC(=O)c4ccccc4)c4ccccc4)C(C)=C1C3(C)C)[C@]1(OC(C)=O)CO[C@@H]1C[C@@H]2O [paclitaxel, reference compound] | – | – | – | – | – | – | 2.47 | > 400 |
